Laboratory results published in PubChem BioAssay (NCI).
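How tested: cells in 96-well plates exposed to compound for 48 hours at five concentrations. TGI marks complete inhibition of growth.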

Legend:
Test in all cases: NCI tumour cell line growth inhibition, 48 h
COLO 205 colon = test system: COLO 205 colon
EKVX NSCLC = test system: EKVX NSCLC
UACC-62 melanoma = test system: UACC-62 melanoma
RPMI-8226 leukemia = test system: RPMI-8226 leukemia
HL-60(TB) leukemia = test system: HL-60(TB) leukemia
SK-MEL-5 melanoma = test system: SK-MEL-5 melanoma
P388/ADR leukemia = test system: P388/ADR leukemia
IGROV1 ovarian = test system: IGROV1 ovarian
KM12 colon = test system: KM12 colon
MDA-N = test system: MDA-N
SN12K1 renal = test system: SN12K1 renal
NCI-H226 lung = test system: NCI-H226 lung
SR leukemia = test system: SR leukemia
A549 NSCLC = test system: A549 NSCLC
SNB-78 CNS = test system: SNB-78 CNS
MOLT-4 leukemia = test system: MOLT-4 leukemia
MDA-MB-435 = test system: MDA-MB-435
OVCAR-3 ovarian = test system: OVCAR-3 ovarian
U251 CNS = test system: U251 CNS
HOP-62 NSCLC = test system: HOP-62 NSCLC
UACC-257 melanoma = test system: UACC-257 melanoma
MCF7 breast = test system: MCF7 breast
SNB-19 CNS = test system: SNB-19 CNS
LOX IMVI melanoma = test system: LOX IMVI melanoma
T-47D breast = test system: T-47D breast
CAKI-1 renal = test system: CAKI-1 renal
MDA-MB-231 breast = test system: MDA-MB-231 breast
HCT-15 colon = test system: HCT-15 colon
NCI-H23 lung = test system: NCI-H23 lung
BT-549 breast = test system: BT-549 breast
A498 renal = test system: A498 renal
SW-620 colon = test system: SW-620 colon
M19-MEL melanoma = test system: M19-MEL melanoma
OVCAR-4 ovarian = test system: OVCAR-4 ovarian
SF-539 CNS = test system: SF-539 CNS
SF-268 CNS = test system: SF-268 CNS
TK-10 renal = test system: TK-10 renal
HCT-116 colon = test system: HCT-116 colon
HOP-92 NSCLC = test system: HOP-92 NSCLC
DMS 114 small cell lung = test system: DMS 114 small cell lung
P388 leukemia = test system: P388 leukemia
NCI-H460 lung = test system: NCI-H460 lung
OVCAR-8 ovarian = test system: OVCAR-8 ovarian
MALME-3M melanoma = test system: MALME-3M melanoma
NCI-H522 lung = test system: NCI-H522 lung
SN12C renal = test system: SN12C renal
SK-MEL-28 melanoma = test system: SK-MEL-28 melanoma
KM20L2 colon = test system: KM20L2 colon
DU-145 prostate = test system: DU-145 prostate
HCC-2998 colon = test system: HCC-2998 colon
RXF 393 renal = test system: RXF 393 renal
DLD-1 colon = test system: DLD-1 colon
SK-MEL-2 melanoma = test system: SK-MEL-2 melanoma
SK-OV-3 ovarian = test system: SK-OV-3 ovarian
HOP-18 NSCLC = test system: HOP-18 NSCLC
M14 melanoma = test system: M14 melanoma
HT29 colon = test system: HT29 colon
786-0 renal = test system: 786-0 renal
ACHN renal = test system: ACHN renal
XF 498 CNS = test system: XF 498 CNS
CCRF-CEM leukemia = test system: CCRF-CEM leukemia
UO-31 renal = test system: UO-31 renal
OVCAR-5 ovarian = test system: OVCAR-5 ovarian
HS 578T breast = test system: HS 578T breast
DMS 273 small cell lung = test system: DMS 273 small cell lung
PC-3 prostate = test system: PC-3 prostate
NCI/ADR-RES ovarian = test system: NCI/ADR-RES ovarian
LXFL 529 NSCLC = test system: LXFL 529 NSCLC
SF-295 CNS = test system: SF-295 CNS
SNB-75 CNS = test system: SNB-75 CNS
K-562 leukemia = test system: K-562 leukemia

O=P1(NCCCl)OCCCN1CCCl (stereo unspecified)
TGI (COLO 205 colon): 428 µM | TGI (EKVX NSCLC): 447 µM | TGI (UACC-62 melanoma): 419 µM | TGI (RPMI-8226 leukemia): 428 µM | TGI (HL-60(TB) leukemia): 381 µM | TGI (SK-MEL-5 melanoma): 429 µM | TGI (P388/ADR leukemia): 315 µM | TGI (IGROV1 ovarian): 457 µM | TGI (KM12 colon): 448 µM | TGI (MDA-N): > 500 µM | TGI (SN12K1 renal): 430 µM | TGI (NCI-H226 lung): 425 µM | TGI (SR leukemia): > 500 µM | TGI (A549 NSCLC): 434 µM | TGI (SNB-78 CNS): 451 µM | TGI (MOLT-4 leukemia): 391 µM | TGI (MDA-MB-435): > 500 µM | TGI (OVCAR-3 ovarian): 422 µM | TGI (U251 CNS): 431 µM | TGI (HOP-62 NSCLC): 444 µM | TGI (UACC-257 melanoma): 421 µM | TGI (MCF7 breast): 388 µM | TGI (SNB-19 CNS): 418 µM | TGI (LOX IMVI melanoma): 402 µM | TGI (T-47D breast): > 500 µM | TGI (CAKI-1 renal): 341 µM | TGI (MDA-MB-231 breast): > 500 µM | TGI (HCT-15 colon): 429 µM | TGI (NCI-H23 lung): 454 µM | TGI (BT-549 breast): > 500 µM | TGI (A498 renal): 462 µM | TGI (SW-620 colon): 401 µM | TGI (M19-MEL melanoma): 440 µM | TGI (OVCAR-4 ovarian): 447 µM | TGI (SF-539 CNS): 413 µM | TGI (SF-268 CNS): 426 µM | TGI (TK-10 renal): > 500 µM | TGI (HCT-116 colon): 440 µM | TGI (HOP-92 NSCLC): 367 µM | TGI (DMS 114 small cell lung): 438 µM | TGI (P388 leukemia): 293 µM | TGI (NCI-H460 lung): 448 µM | TGI (OVCAR-8 ovarian): 439 µM | TGI (MALME-3M melanoma): 399 µM | TGI (NCI-H522 lung): 360 µM | TGI (SN12C renal): 437 µM | TGI (SK-MEL-28 melanoma): 439 µM | TGI (KM20L2 colon): 434 µM | TGI (DU-145 prostate): > 500 µM | TGI (HCC-2998 colon): 427 µM | TGI (RXF 393 renal): 445 µM | TGI (DLD-1 colon): 431 µM | TGI (SK-MEL-2 melanoma): 419 µM | TGI (SK-OV-3 ovarian): 424 µM | TGI (HOP-18 NSCLC): 124 µM | TGI (M14 melanoma): > 500 µM | TGI (HT29 colon): 448 µM | TGI (786-0 renal): > 466 µM | TGI (ACHN renal): > 500 µM | TGI (XF 498 CNS): 436 µM | TGI (CCRF-CEM leukemia): 400 µM | TGI (UO-31 renal): 441 µM | TGI (OVCAR-5 ovarian): 453 µM | TGI (HS 578T breast): > 500 µM | TGI (DMS 273 small cell lung): 410 µM | TGI (PC-3 prostate): > 500 µM | TGI (NCI/ADR-RES ovarian): 450 µM | TGI (LXFL 529 NSCLC): > 500 µM | TGI (SF-295 CNS): 429 µM | TGI (SNB-75 CNS): 435 µM | TGI (K-562 leukemia): 466 µM
